Assay results published in PubChem BioAssay (NCI).
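Each compound was tested at five concentrations against cells in 96-well plates for 48 hours. GI50: concentration for 50% inhibition of growth. Definition used: TGI = concentration required for complete inhibition of growth.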

Assays:
Experiment in all cases: NCI-60 cell line screen, 48 h
SN12C renal = system: SN12C renal
OVCAR-8 ovarian = system: OVCAR-8 ovarian
SK-OV-3 ovarian = system: SK-OV-3 ovarian
KM12 colon = system: KM12 colon
SF-539 CNS = system: SF-539 CNS
NCI-H522 lung = system: NCI-H522 lung
HL-60(TB) leukemia = system: HL-60(TB) leukemia
UACC-62 melanoma = system: UACC-62 melanoma
ACHN renal = system: ACHN renal
HCT-116 colon = system: HCT-116 colon

Compound | TGI (SN12C renal) | TGI (OVCAR-8 ovarian) | TGI (SK-OV-3 ovarian) | TGI (KM12 colon) | TGI (SF-539 CNS) | TGI (NCI-H522 lung) | TGI (HL-60(TB) leukemia) | TGI (UACC-62 melanoma) | TGI (ACHN renal) | TGI (HCT-116 colon) | GI50 (HCT-116 colon) | GI50 (SN12C renal) | GI50 (OVCAR-8 ovarian) | GI50 (SK-OV-3 ovarian) | GI50 (KM12 colon) | GI50 (SF-539 CNS) | GI50 (NCI-H522 lung) | GI50 (HL-60(TB) leukemia) | GI50 (UACC-62 melanoma) | GI50 (ACHN renal)
CC1OC=CC(=O)C1O (stereo unspecified) | > 100 µM | > 100 µM | > 100 µM | > 100 µM | > 100 µM | > 100 µM | > 100 µM | > 100 µM | > 100 µM |  |  |  |  |  |  |  |  |  |  | 
COc1ccc(NC(=S)NNC(=O)c2cc(-c3ccccc3)nc3ccccc23)cc1 | 48.6 µM | 38.9 µM | 15.9 µM | > 100 µM | 27.2 µM | 50.7 µM |  | 30.6 µM | 87.3 µM | 27 µM |  |  |  |  |  |  |  |  |  | 
C=C1CC(OC)(C(O)C(=O)N[C@H]2OCO[C@H]3C2O[C@H](C[C@H](O)COC)C(C)(C)C3OC)O[C@H](C)[C@@H]1C (stereo partly specified) | > 0.00772 µM | > 0.00772 µM |  |  | > 0.00772 µM | > 0.00772 µM |  | > 0.00772 µM |  | > 0.00772 µM |  |  |  |  |  |  |  |  |  | 
COc1cccc2c1[C@]1(O)C(O)CCCC21 (stereo partly specified) | > 100 µM | > 100 µM | > 100 µM | > 100 µM | > 100 µM | > 100 µM |  | > 100 µM | > 100 µM | > 100 µM |  |  |  |  |  |  |  |  |  | 
CCOC(=O)c1cn(C)nc1N/C(C)=C\C(=O)c1ccccc1 | > 100 µM | > 100 µM | > 100 µM | > 100 µM | > 100 µM | > 100 µM | > 100 µM | > 100 µM | > 100 µM |  |  |  |  |  |  |  |  |  |  | 
CN(C)c1ccc(/C=C2\C[C@H]3[C@@H]4CCc5cc(O)ccc5[C@H]4CC[C@]3(C)C2=O)cc1 |  | > 100 µM | > 100 µM | > 100 µM | 62.8 µM |  |  | 86.1 µM | > 100 µM |  |  |  |  |  |  |  |  |  |  | 
Cc1ccc2c(=O)c(C(=O)N(CCO)CCO)c[nH]c2n1 | > 100 µM | > 100 µM |  | > 100 µM |  | > 100 µM | > 100 µM | > 100 µM | > 100 µM | > 100 µM |  |  |  |  |  |  |  |  |  | 
CC1(C)N=C(N)N=C(N)N1c1ccc(OCCCOc2ccccc2)c(Cl)c1 | 14.9 µM | 14.5 µM | 35.1 µM | 12.3 µM | 15.5 µM | 8.39 µM |  | 18.3 µM |  | 13.5 µM |  |  |  |  |  |  |  |  |  | 
CCOC(=O)N1C(=S)C(C(=O)OC)(C(=O)OC)N=C1C | > 100 µM | > 100 µM | > 100 µM | > 100 µM |  |  | > 100 µM | > 100 µM | > 100 µM | > 100 µM |  |  |  |  |  |  |  |  |  | 
CCOC(=O)c1cc(-c2ccn(C(C)=O)c2)c(-c2cc(C)co2)[nH]1 | > 100 µM | > 100 µM |  | > 100 µM |  | > 100 µM | > 100 µM | > 100 µM | > 100 µM | > 100 µM |  |  |  |  |  |  |  |  |  | 
NC1CCCCC1N.O=S(=O)([O-])CCCN1CCN(CCO)CC1.O=S(=O)([O-])CCCN1CCN(CCO)CC1.[Pt+4] | > 100 µM | > 100 µM | > 100 µM | > 100 µM | > 100 µM | 17.9 µM | 11.6 µM | 33.7 µM |  | > 100 µM | 2 µM | 7.56 µM | 2.78 µM | > 87.2 µM | 13.2 µM | 10.7 µM | 2.73 µM | 0.132 µM | 6.91 µM | 
COC(=O)C(C(=O)OC)C1CC(=O)c2c(Br)sc(Br)c21 (stereo unspecified) | 32.4 µM | 37.8 µM | 44 µM | > 100 µM | 42.6 µM |  | 49.9 µM | 29.6 µM | 26.6 µM | 30.9 µM |  |  |  |  |  |  |  |  |  | 
COc1ccc(C(C)NNC(=O)c2ccncc2)cc1F (stereo unspecified) | > 100 µM | > 100 µM | > 100 µM | > 100 µM | > 100 µM |  | > 100 µM | > 100 µM | > 100 µM | > 100 µM |  |  |  |  |  |  |  |  |  | 
S=C(Nc1ccc2c(c1)Cc1ccccc1-2)Nc1ccc2c(c1)Cc1ccccc1-2 | > 100 µM | > 100 µM | > 100 µM | > 100 µM |  | > 100 µM | 22.4 µM | > 100 µM | > 100 µM | > 100 µM |  |  |  |  |  |  |  |  |  | 
c1cc2ccc1CNCCN1CCNCc3ccc(cc3)Oc3ccc(cc3)CNCCN(CCNCc3ccc(cc3)O2)CCNCc2ccc(cc2)Oc2ccc(cc2)CNCC1 | 1.57 µM |  | 3.15 µM | 3.22 µM | 2.76 µM |  | 2.02 µM | 3.1 µM | 15.5 µM |  |  | 0.446 µM |  | 1.72 µM | 1.77 µM | 1.44 µM |  | 0.503 µM | 1.66 µM | 3.88 µM
O=S(=O)(/N=C1/SC(=Nc2ccccc2)N(c2ccccc2)/C1=N/S(=O)(=O)c1ccccc1)c1ccccc1 | 31.5 µM | 62.6 µM |  | 71 µM |  |  | 45.1 µM | 31.9 µM | 68.7 µM | 38.4 µM |  |  |  |  |  |  |  |  |  | 
